PMC12349723, “Computationally accelerated identification of P-glycoprotein inhibitors” (PLOS One, 2025)
Values joined by “and” are separate entries in the source; they are usually repeats but may differ in a detail not shown here. Equal entries are not always repeated. Where two headings read alike, the source gives them in different places.

What was measured:
DU145-TXR cells = assay: MTT viability assay, reversal of MDR (re-sensitization to paclitaxel) in P-gp overexpressing DU145-TXR cells; format: cell-based, human; conditions: for % Survival, mean / % Survival: 15 µM compound + 500 nM PTX (Paclitaxel, Taxol); for % Survival, mean / % Survival / viability at 15 µM: DU145-TXR; for Re-sensitization of DU145-TXR cells to PTX (reversal of MDR): 15 µM compound with or without 500 nM PTX, 48 h, MTT, re-sensitization = 30% or greater decrease in cell viability; for viability at 15 µM: Homo sapiens, 15 µM Compound Alone
Procedure, shortened: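 MTT viability testing was done on P-gp overexpressing, multidrug resistant DU145-TXR human prostate cancer cells. They were kept in 10 nM paclitaxel and seeded at 3,000 cells per well in complete RPMI. Cells were exposed to compound, with or without paclitaxel, for 48 hours. MTT was then added for 4 hours, formazan was dissolved in DMSO, and absorbance was read at 570 nm. Survival was expressed relative to control-treated cells.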

A2780-ADR cells = assay: MTT viability assay, reversal of MDR in P-gp overexpressing A2780-ADR cells; format: cell-based, human; conditions: for Reversal of MDR in A2780-ADR cells: 15 µM compound with or without 500 nM PTX, 48 h, MTT; for Mean % Survival / % Survival (individual sample) / viability at 15 µM: A2780-ADR cells; for viability at 15 µM: Homo sapiens, A2780 ADR
Procedure, shortened: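 Viability was assessed by MTT reduction (absorbance 570 nm, 4 h MTT) after 48 h compound treatment, alone or with chemotherapeutic, of parental A2780 or P-gp-overexpressing A2780-ADR cells seeded at 3,000 per well. Percent survival relative to DMSO-treated or DMSO-plus-chemotherapeutic controls.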

P-gp = biological target: T1, P-gp (Homo sapiens, UniProt P08183); assay: Top Hit classification from combined in vitro criteria; conditions: reverse MDR, do not increase PTX toxicity in chemo-sensitive cancer cells, non-toxic to noncancerous cells, not P-gp substrates
T1 construct: The MDR, P-gp overexpressing DU145-TXR cells were maintained under positive selection pressure; endogenous in cells; host or cells: DU145-TXR (paclitaxel-resistant sub-line of DU145 human prostate cancer cells)
T1 sequence (P08183 whole entry): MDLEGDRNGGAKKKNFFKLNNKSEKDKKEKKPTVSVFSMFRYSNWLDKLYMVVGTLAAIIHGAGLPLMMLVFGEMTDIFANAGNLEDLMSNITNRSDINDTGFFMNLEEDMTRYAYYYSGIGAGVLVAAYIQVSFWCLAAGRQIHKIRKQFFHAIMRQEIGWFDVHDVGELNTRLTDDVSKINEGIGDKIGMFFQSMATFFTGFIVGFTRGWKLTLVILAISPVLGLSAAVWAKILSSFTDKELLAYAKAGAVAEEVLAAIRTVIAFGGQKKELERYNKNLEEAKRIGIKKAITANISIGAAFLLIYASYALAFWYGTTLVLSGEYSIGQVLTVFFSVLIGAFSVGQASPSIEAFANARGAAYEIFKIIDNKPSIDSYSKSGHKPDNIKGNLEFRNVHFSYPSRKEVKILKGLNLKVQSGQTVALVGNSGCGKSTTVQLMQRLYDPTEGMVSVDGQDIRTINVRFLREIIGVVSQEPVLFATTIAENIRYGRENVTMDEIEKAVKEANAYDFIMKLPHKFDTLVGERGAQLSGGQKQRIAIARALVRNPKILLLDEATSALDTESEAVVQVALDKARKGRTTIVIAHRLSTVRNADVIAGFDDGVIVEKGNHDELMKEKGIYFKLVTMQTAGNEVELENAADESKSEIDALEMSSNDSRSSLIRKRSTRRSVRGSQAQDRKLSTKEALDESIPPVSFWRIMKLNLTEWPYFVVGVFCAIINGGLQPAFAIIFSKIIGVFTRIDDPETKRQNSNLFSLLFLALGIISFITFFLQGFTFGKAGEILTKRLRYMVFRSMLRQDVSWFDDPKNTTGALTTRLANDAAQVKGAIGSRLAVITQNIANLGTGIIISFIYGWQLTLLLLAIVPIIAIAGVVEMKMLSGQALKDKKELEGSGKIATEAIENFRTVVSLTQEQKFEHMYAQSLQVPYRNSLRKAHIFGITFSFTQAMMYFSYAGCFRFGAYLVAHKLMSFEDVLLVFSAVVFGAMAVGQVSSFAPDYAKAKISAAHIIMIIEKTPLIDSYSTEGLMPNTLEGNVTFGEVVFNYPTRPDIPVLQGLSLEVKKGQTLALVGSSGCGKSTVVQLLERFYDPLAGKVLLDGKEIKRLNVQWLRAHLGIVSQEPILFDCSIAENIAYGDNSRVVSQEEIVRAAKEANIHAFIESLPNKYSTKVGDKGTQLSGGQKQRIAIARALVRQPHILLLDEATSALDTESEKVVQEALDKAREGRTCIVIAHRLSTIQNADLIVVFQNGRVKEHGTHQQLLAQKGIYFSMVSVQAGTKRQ

[1] = mean of 8 samples, read-out: % Survival, mean
[2] = trial 1, sample 1, read-out: % Survival
[3] = trial 1, sample 2, read-out: % Survival
[4] = trial 1, sample 3, read-out: % Survival
[5] = trial 1, sample 4, read-out: % Survival
[6] = trial 2, sample 1, read-out: % Survival
[7] = trial 2, sample 2, read-out: % Survival
[8] = trial 2, sample 3, read-out: % Survival
[9] = trial 2, sample 4, read-out: % Survival
[10] = 15 µM compound + 500 nM PTX, mean of 12 samples
[11] = 15 µM compound + 500 nM PTX, single samples (trials 1-3, samples 1-4)
[12] = 15 µM compound alone, single samples (trials 1-3, samples 1-4)
[13] = 15 µM compound alone, mean of 12 samples, read-out: Mean % Survival

SMILES | % Survival, mean (DU145-TXR cells; mean of 8 samples) [%] | % Survival (DU145-TXR cells; trial 1, sample 1) [%] | % Survival (DU145-TXR cells; trial 1, sample 2) [%] | % Survival (DU145-TXR cells; trial 1, sample 3) [%] | % Survival (DU145-TXR cells; trial 1, sample 4) [%] | % Survival (DU145-TXR cells; trial 2, sample 1) [%] | % Survival (DU145-TXR cells; trial 2, sample 2) [%] | % Survival (DU145-TXR cells; trial 2, sample 3) [%] | % Survival (DU145-TXR cells; trial 2, sample 4) [%] | Re-sensitization of DU145-TXR cells to PTX (reversal of MDR) (DU145-TXR cells) | viability at 15 µM (DU145-TXR cells; [1]) [%] | viability at 15 µM (DU145-TXR cells; [2]) [%] | viability at 15 µM (DU145-TXR cells; [3]) [%] | viability at 15 µM (DU145-TXR cells; [4]) [%] | viability at 15 µM (DU145-TXR cells; [5]) [%] | viability at 15 µM (DU145-TXR cells; [6]) [%] | viability at 15 µM (DU145-TXR cells; [7]) [%] | viability at 15 µM (DU145-TXR cells; [8]) [%] | viability at 15 µM (DU145-TXR cells; [9]) [%] | Reversal of MDR in A2780-ADR cells (A2780-ADR cells) | further results
COc1cccc(N2CCN(c3ccc4nnc(CCC(=O)Nc5ccc(F)c(F)c5)n4n3)CC2)c1 [Compound 101, COc1cccc(c1)N1CCN(CC1)c1ccc2nnc(CCC(=O)Nc3ccc(F)c(F)c3)n2n1] | 57.4 | 48 | 48 | 37 | 48 | 83 | 70 | 66 | 58 | re-sensitized DU145-TXR cells to PTX | 112 | 121 | 110 | 111 | 113 | 117 | 106 | 109 | 104 | reversed MDR in A2780-ADR cells | Mean % Survival (A2780-ADR cells; [10]): 41.5%; % Survival (individual sample) (A2780-ADR cells; [11]): 46%; % Survival (individual sample) (A2780-ADR cells; [12]): 93%; viability at 15 µM (A2780-ADR cells; [13]): 88%; Top Hit (P-gp): Yes
Cc1ccc(-c2noc(-c3cn(Cc4ccc(NS(=O)(=O)c5ccccc5F)cc4)cn3)n2)cc1 [Compound 103, Cc1ccc(cc1)-c1noc(n1)-c1cn(Cc2ccc(NS(=O)(=O)c3ccccc3F)cc2)cn1] | 19.9 | 11 | 11 | 11 | 14 | 32 | 27 | 27 | 28 | re-sensitized DU145-TXR cells to PTX | 76.4 | 58 | 50 | 48 | 52 | 108 | 104 | 94 | 96 | reversed MDR in A2780-ADR cells | Mean % Survival (A2780-ADR cells; [10]): 44.4%; % Survival (individual sample) (A2780-ADR cells; [12]): 69%; viability at 15 µM (A2780-ADR cells; [13]): 70.4%; viability at 15 µM (A2780-ADR cells; 15 µM compound alone, single samples (trials 1-3, samples 1-4), read-out: % Survival (individual sample)): 67%; Top Hit (P-gp): No
Cc1onc(-c2ccccc2)c1-c1nnc(Cn2cnc3ccccc3c2=O)o1 [Compound 111, Cc1onc(c1-c1nnc(Cn2cnc3ccccc3c2=O)o1)-c1ccccc1] | 41.1 | 30 | 34 | 44 | 39 | 51 | 48 | 46 | 38 | re-sensitized DU145-TXR cells to PTX | 102 | 111 | 93 | 90 | 94 | 106 | 115 | 108 | 103 | reversed MDR in A2780-ADR cells | Mean % Survival (A2780-ADR cells; [10]): 47.6%; % Survival (individual sample) (A2780-ADR cells; [11]): 52% and 38%; % Survival (individual sample) (A2780-ADR cells; [12]): 95% and 98%; viability at 15 µM (A2780-ADR cells; [13]): 97.3%; Top Hit (P-gp): Yes
O=C(NCc1cccc(F)c1)c1nnn2c1Sc1c(C(=O)NCc3cccc(F)c3)nnn1CC2 [Compound 122, Fc1cccc(CNC(=O)c2nnn3CCn4nnc(C(=O)NCc5cccc(F)c5)c4Sc23)c1] | 60.4 | 61 | 55 | 61 | 62 | 65 | 63 | 54 | 61 | re-sensitized DU145-TXR cells to PTX | 106 | 102 | 105 | 85 | 102 | 123 | 107 | 106 | 114 | reversed MDR in A2780-ADR cells | Mean % Survival (A2780-ADR cells; [10]): 45.8%; % Survival (individual sample) (A2780-ADR cells; [11]): 50% and 51% and 45%; % Survival (individual sample) (A2780-ADR cells; [12]): 104% and 83%; viability at 15 µM (A2780-ADR cells; [13]): 89.7%; Top Hit (P-gp): No
